Experimental data as given in PMC10445283, “Boronate-Based Oxidant-Responsive Derivatives of Acetaminophen as Proinhibitors of Myeloperoxidase” (Chemical Research in Toxicology, 2023).
Where “and” joins values, the source holds several entries; their conditions need not be identical. Equal values may be shown once. Entries after “also recorded” stand apart in the source; their conditions may differ. Read-outs that look alike come from different tables or passages of the source.

Assays:
[1] = molecular target: T1, MPO from human neutrophils (Homo sapiens, UniProt P05164); experiment: Taurine N-chloramine/TMB assay of MPO-derived HOCl; assay type: biochemical; settings: for IC50: read-out: IC50, inhibition of MPO chlorinating activity
T1 construct: MPO from human neutrophils was obtained from Athens Research and Technology (Athens, GA); purchased Athens Research and Technology (Athens, GA); host or cells: human neutrophils (natural source)
Method: (§1) The performance of AM and its derivatives in inhibition of the MPO chlorinating activity was evaluated using dose–response curves. The half maximal inhibitory concentration (IC50) values were determined on the basis of three independent measurements using a dose–response fitting mode implemented in OriginPro 2020 (OriginLab Corp.) software. […] MPO stock solution was prepared according to the supplier’s instruction by dissolving lyophilized powder of MPO in distilled water and was stored at 6 °C. The desired MPO activity was obtained by dilution of the stock solution with phosphate buffer (50 mM, pH 7.4) containing sodium chloride (0.1 M).
The diluted MPO solution was pipetted directly into the 96-well plate (1.45 μL). […] The prepared 96-well plate was incubated for 5 min, and the reaction was started by the addition of 110 μL per well of 20 μM H2O2 solution in water. The plate was incubated for another 5 min, and then 200 μL of the incubation mixtures was transferred to another 96-well plate prefilled with catalase solution (10 kU/mL, 2 μL per well) to remove unreacted hydrogen peroxide and to stop the reaction. Next, 50 μL per well of developing reagent composed of 2 mM TMB, 100 μM potassium iodide, and 0.32 M acetate buffer (pH 5.4) was added, and absorbance at 645 nm was measured by a Varioscan LUX (Thermo Fisher Scientific) plate reader controlled by SkanIt 6.0.2 software. The typical chlorinating activity of MPO during the inhibition experiments was 5 nM/s HOCl as determined using a CBA oxidation-based assay.[18] The concentration of H2O2 in the stock solution was determined spectrophotometrically at 240 nm using the molar extinction coefficient ε = 43.6 M^–1 cm^–1. The chemical structures of the TMB and CBA probes, along with their oxidation products, are presented in Supplementary Figure S5.
The MPO inhibitory activity of AM was compared with its two synthesized boronated derivatives (Figure 1). […] The resulting N-chloramine is then quantified in a reaction with N,N,N′,N′-tetramethylbenzidine catalyzed by potassium iodide.[20] […]

[2] = molecular target: T1, MPO from human neutrophils; experiment: NBD-TM oxidation assay of MPO-derived HOCl; assay type: biochemical; settings: for IC50: NBD-TM 20 μM, MPO 0.1 nM, H2O2 10 μM, NaCl 0.1 M, pH 7.4, 5 min, read-out: IC50, inhibition of MPO chlorinating activity
Method: as §1
MPO-derived HOCl was monitored by an NBD-TM probe according to the previously described procedure (Supplementary Figure S5).[18] Briefly, to 96-well plates containing MPO, NBD-TM (40 μM), the studied compounds, phosphate buffer (100 mM, pH 7.4), and sodium chloride (0.2 M), 20 μM solution of hydrogen peroxide was added to start the reaction (mixing ratio 1:1 v/v). Then, the changes of fluorescence intensity were measured by Varioscan LUX using λex = 475 nm, λem = 575 nm, and slits width of 12 nm. This enabled the direct monitoring of fluorescent NBD-TSO formation.
The MPO inhibitory activity of AM was compared with its two synthesized boronated derivatives (Figure 1). […] In the taurine-based assay, HOCl oxidizes taurine to taurine N-chloramine. The resulting N-chloramine is then quantified in a reaction with N,N,N′,N′-tetramethylbenzidine catalyzed by potassium iodide.[20] In the case of the NBD-TM probe, in the presence of HOCl, the sulfur atom in the probe is oxidized to sulfoxide, producing a highly fluorescent NBD-TSO.[18]

[3] = Pseudo-first-order kinetics of reaction with H2O2 (UPLC); assay type: physicochemical; settings: pH 7.4, 20 mM phosphate buffer, 0.2–1 mM H2O2
Method: The rate constants for H2O2 and the studied boronic acids were determined directly under the pseudo-first-order conditions. Typically, the incubation mixtures contained boronic acid (20 μM), phosphate buffer (20 mM), CH3CN (2.5% v/v), and at least 10-fold excess of H2O2 (0.2–1 mM). The changes of analyte concentrations were followed by UPLC using a photodiode array detector (λmax = 250 ± 1.2 nm). On the basis of kinetic traces of AMBB and AAPBA decay (Supplementary Figure S6), the pseudo-first-order rate constants were determined. The second-order rate constants were calculated using the linear relationship between the determined pseudo-first-order rate constants and H2O2 concentrations.

[4] = Competition kinetics with FLBA: reaction with HOCl; assay type: physicochemical; settings: pH 7.4, 50 mM phosphate buffer
Method: (§2) The rate constants of the reactions of AMBB and AAPBA with ONOO^– and HOCl were determined by a competition kinetic method using FLBA as a reference compound.[18],[21],[22] In this approach, two pseudo-first-order reactions were assumed, a reaction between FLBA and the selected oxidant, ONOO^– or HOCl (eq 1), and between the investigated acetaminophen derivative (R-B(OH)2) and the oxidant (eq 2). Typically, the set of samples containing FLBA (20 μM), phosphate buffer (50 mM, pH 7.4), and AMBB or AAPBA (0–160 μM) in Eppendorf tubes was prepared. A concentrated basic solution of HOCl or ONOO^– was then added to the samples and rapidly mixed. The resulting concentration of an appropriate oxidant was 1.5 μM. Next, the samples were transferred to a 96-well plate, and the fluorescence intensity of the formed fluorescein was measured. The fluorescence intensity was followed with a Varioscan LUX plate reader using λex = 490 nm, λem = 515 nm, and slit widths of 12 nm.

[5] = Competition kinetics with FLBA: reaction with ONOO–; assay type: physicochemical; settings: pH 7.4, 50 mM phosphate buffer
Method: as §2

[6] = Spontaneous conversion of AMB-OH into acetaminophen (UPLC); assay type: physicochemical
Method: Ultra-performance liquid chromatograph (UPLC) Acquity (Waters Ltd.) equipped with a photodiode array detector and combined with an LCT Premier XE (Waters Ltd.) mass spectrometer was used for the chromatographic separation and identification of AMBB and AAPBA oxidation products. Separation was performed on a reversed-phase C18 UPLC column (Waters Acquity UPLC BEH C18 […], 50 × 2.1 mm) equilibrated with a water/acetonitrile (CH3CN) (90/10 v/v) mobile phase containing 0.1% (v/v) trifluoroacetic acid (TFA). The analytes were separated at a flow rate of 0.3 mL/min. During the first 0.5 min of analysis, the composition of the mobile phase remained unchanged. […] The injection volume was 2 μL, the sample temperature was 20 °C, and the column temperature was 40 °C. The electrospray source was operated at positive ion mode using the following parameters: capillary voltage 2.8 kV, sample cone voltage 60 V, desolvation temp. 350 °C, source temp. 100 °C, desolvation gas flow 800 L/h, and cone gas flow 50 L/h. The MCP detector voltage was 2.5 kV.
Figure 4 Kinetics of the conversion of AMB-OH into acetaminophen (AM). AMB-OH was produced in situ by mixing 50 μM AMBB with 50 μM NaOCl in 20 mM phosphate buffer, pH 7.4. (A) UPLC peak areas of AMB-OH (open squares) and AM (open circles) as a function of incubation time. UPLC peak areas were integrated for chromatograms extracted at 250 ± 1.2 nm. (B) Scheme of the quinone methide moiety elimination by AMB-OH to form AM. TEXT PRINTED IN THE PICTURE: (A) AM: ^1k = (1.85 ± 0.01) × 10^-4 s^-1 | (A) AMB-OH: ^1k = (2.00 ± 0.01) × 10^-4 s^-1

[7] = Solubility in MPO assay mixture; assay type: physicochemical; settings: above 0.3 mM in assay mixture, pH 7.4, 3% methanol
Method: For AMBB, in the range of 0 nM to 0.3 mM, no inhibition of HOCl production was observed (Figure 1A).

MPO = molecular target: T2, MPO (Homo sapiens, UniProt P05164); experiment: MPO-dependent HOCl generation (summary values); assay type: biochemical
T2 construct: MPO from human neutrophils was obtained from Athens Research and Technology (Athens, GA); purchased Athens Research and Technology (Athens, GA); host or cells: human neutrophils (natural source)
Method: as §1

COX-2 = settings: reference not given; read-out: IC50 for the inhibition of COX-2; cited from earlier work
[8] = parameters: method as in PMID 3395354; settings: pH 7; cited from earlier work
[9] = cited from earlier work
[10] = parameters: method as in PMID 34884784; settings: previously reported; cited from earlier work
[11] = abstract summary, read-out: IC50 toward MPO-dependent HOCl generation

T1 sequence (P05164 279-745 limits assumed): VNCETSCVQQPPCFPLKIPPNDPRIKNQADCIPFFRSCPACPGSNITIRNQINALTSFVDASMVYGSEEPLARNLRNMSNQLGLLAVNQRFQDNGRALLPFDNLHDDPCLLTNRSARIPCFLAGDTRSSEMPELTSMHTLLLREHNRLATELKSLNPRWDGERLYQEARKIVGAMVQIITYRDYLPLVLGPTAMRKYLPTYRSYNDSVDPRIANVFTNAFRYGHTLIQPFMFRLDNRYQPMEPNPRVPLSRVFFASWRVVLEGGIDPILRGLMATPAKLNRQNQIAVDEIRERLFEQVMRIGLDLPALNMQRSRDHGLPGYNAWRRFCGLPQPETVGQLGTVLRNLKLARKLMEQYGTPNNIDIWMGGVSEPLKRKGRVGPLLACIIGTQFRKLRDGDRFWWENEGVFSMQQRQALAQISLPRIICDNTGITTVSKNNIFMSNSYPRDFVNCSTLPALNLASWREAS
T1 sequence (P05164 165-273 limits assumed): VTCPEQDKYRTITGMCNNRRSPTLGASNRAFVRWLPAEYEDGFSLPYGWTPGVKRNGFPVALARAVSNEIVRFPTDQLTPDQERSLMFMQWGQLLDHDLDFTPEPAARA
T2 sequence (P05164 279-745 limits assumed): as the sequence (P05164 279-745 limits assumed) above
T2 sequence (P05164 165-273 limits assumed): as the sequence (P05164 165-273 limits assumed) above

CC(=O)Nc1ccc(B(O)O)cc1 [AAPBA, 4-Acetamidophenylboronic Acid]
IC50 [1]: 420 ± 60 µM
IC50 [2]: 394 ± 2 µM
second-order rate constant of reaction with H2O2 [3]: 1.9 ± 0.1 M^–1 s^–1
second-order rate constant of reaction with HOCl [4]: (1.72 ± 0.01) × 10^4 M^–1 s^–1
second-order rate constant of reaction with ONOO– [5]: (1.1 ± 0.3) × 10^6 M^–1 s^–1

CC(=O)Nc1ccc(OCc2ccc(O)cc2)cc1 [AMB-OH, N-[4-(4-hydroxybenzyloxy)phenyl]acetamide]
time to complete conversion into AM ([6]; pH 7.4, room temperature): 5 h
half-life ([6]; phosphate buffer, pH 7.4, pH 7.4, room temperature, read-out: half-life time (converted)): 1 h

CC(=O)Nc1ccc(OCc2ccc(B(O)O)cc2)cc1 [AMBB, (4-((4-Acetamidophenoxy)methyl)phenyl)-boronic Acid]
inhibition of HOCl production ([1]; in the presence of taurine, 0 nM to 0.3 mM compound): no inhibition; also recorded: not show any inhibitory activity; also recorded: failed to inhibit the chlorination cycle
inhibitory effect on HOCl production activity of MPO ([2]; no taurine, effect seen in the 0.1–0.3 mM range): shows the inhibitory effects; also recorded: exhibits inhibitory activity
second-order rate constant of reaction with H2O2 [3]: 1.67 M^–1 s^–1 and 1.67 ± 0.02 M^–1 s^–1
solubility [7]: limited solubility and precipitation
IC50 (MPO; [11]): > 300 µM

CC(=O)Nc1ccc(O)cc1 [Acetaminophen, N-(4-hydroxyphenyl)acetamide]
IC50 [1]: 153 ± 9 µM
IC50 [2]: 135 ± 9 µM
electrode potential E°′ (AM-OH/AM-O·,H+ redox couple) [8]: 0.71 ± 0.01 V
first-order rate constant of AM build-up from AMB-OH ([6]; pH 7.4, 20 mM phosphate buffer): (1.85 ± 0.01) × 10^-4 s^-1
IC50 (MPO; [11]): 140 µM
IC50 (MPO; rounded value in discussion, read-out: IC50 for the inhibition of MPO): 150 µM

O=C(O)c1ccccc1-c1c2ccc(=O)cc-2oc2cc(B(O)O)ccc12 [FLBA, reference compound]
rate constant of reaction with HOCl ([9]; previously reported): 1.11 × 10^4 M^–1 s^–1
rate constant of reaction with ONOO– [10]: 1.0 × 10^6 M^–1 s^–1

O=c1[nH]c(=O)c2[nH]c(=O)[nH]c2[nH]1 [uric acid]
bimolecular rate constant of reaction with HOCl ([9]; pH 7): 3 × 10^5 M^–1 s^–1
